# According to patent US8410117B2, “Imidazopyrimidine derivatives” (Hoffmann-La Roche Inc., priority 2010, dated 2013):
# Target: T1, human PDE10A (Homo sapiens, UniProt Q9Y233)
# T1 construct: The human PDE10A full length assay; purchased Enzo Life Science, Lausen, Switzerland SE-534
# Assay: human PDE10A full length Scintillation Proximity Assay (SPA)
# Type: biochemical
# Settings: 50 nM cGMP and 50 nM [3H]-cGMP, 20 minutes at room temperature; read-out: PDE10A inhibition IC50
# In short: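 Full-length enzyme at 3.75 ng/well in 20 mM HEPES pH 7.5, 10 mM MgCl2, 0.05 mg/ml BSA, with 50 nM cGMP plus 50 nM [3H]-cGMP substrate, 20 min at room temperature. Stopped with YSi-SPA beads in zinc sulphate and counted by scintillation. IC50 from inhibitor concentration series; no-enzyme wells define background.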
# T1 sequence (Q9Y233 1-779 isoform Q9Y233-1): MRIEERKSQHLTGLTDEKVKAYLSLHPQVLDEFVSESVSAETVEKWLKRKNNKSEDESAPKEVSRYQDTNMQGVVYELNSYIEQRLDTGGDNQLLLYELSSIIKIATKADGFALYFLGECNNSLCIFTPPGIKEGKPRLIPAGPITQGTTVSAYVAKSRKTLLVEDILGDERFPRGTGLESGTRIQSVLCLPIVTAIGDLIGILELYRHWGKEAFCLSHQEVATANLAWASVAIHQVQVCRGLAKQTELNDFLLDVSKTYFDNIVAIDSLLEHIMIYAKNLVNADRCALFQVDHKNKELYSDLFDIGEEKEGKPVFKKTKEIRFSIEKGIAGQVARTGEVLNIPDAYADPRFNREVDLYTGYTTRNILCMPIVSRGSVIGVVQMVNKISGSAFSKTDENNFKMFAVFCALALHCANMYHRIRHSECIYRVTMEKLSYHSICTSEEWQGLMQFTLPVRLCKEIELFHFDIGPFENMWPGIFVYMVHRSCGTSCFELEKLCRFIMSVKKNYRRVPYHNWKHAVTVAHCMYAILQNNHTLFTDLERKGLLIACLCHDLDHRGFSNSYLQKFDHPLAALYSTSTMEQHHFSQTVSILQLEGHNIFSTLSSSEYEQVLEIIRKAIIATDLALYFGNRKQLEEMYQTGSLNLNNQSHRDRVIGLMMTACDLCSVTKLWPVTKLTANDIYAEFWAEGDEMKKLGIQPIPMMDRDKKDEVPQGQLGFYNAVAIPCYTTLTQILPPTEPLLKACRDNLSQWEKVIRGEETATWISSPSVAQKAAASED
row,SMILES,IC50 [nM]
1,"COCCN(C)C(=O)c1cnn(C)c1C(=O)Nc1ccn2cc(-c3cccc(OC)c3)nc2n1 [Example 101, 2-Methyl-2H-pyrazole-3,4-dicarboxylic acid 4-[(2-methoxy-ethyl)-methyl-amide]3-{[2-(3-methoxy-phenyl)-imidazo[1,2-a]pyrimidin-7-yl]amide}]",22
2,"CN(C)C(=O)c1cnn(C)c1C(=O)Nc1ccn2cc(-c3cccc(OCCF)c3)nc2n1 [Example 102, 2-Methyl-2H-pyrazole-3,4-dicarboxylic acid 4-dimethylamide 3-({2-[3-(2-fluoro-ethoxy)-phenyl]-imidazo[1,2-a]pyrimidin-7-yl}-amide)]",27.9
3,"Cn1ncc(C(=O)N2CCC2)c1C(=O)Nc1ccn2cc(-c3cccc(OCCF)c3)nc2n1 [Example 103, 4-(Azetidine-1-carbonyl)-2-methyl-2H-pyrazole-3-carboxylic acid {2-[3-(2-fluoro-ethoxy)-phenyl]imidazo[1,2-a]pyrimidin-7-yl}-amide]",28.7
4,"CN(CCF)C(=O)c1cnn(C)c1C(=O)Nc1ccn2cc(-c3cccc(F)c3)nc2n1 [Example 104, 2-Methyl-2H-pyrazole-3,4-dicarboxylic acid 4-[(2-fluoro-ethyl)-methyl-amide]3-{[2-(3-fluoro-phenyl)-imidazo[1,2-a]pyrimidin-7-yl]-amide}]",29.6
5,"CC(=O)Oc1cccc(-c2cn3ccc(NC(=O)c4c(C(=O)N5CCC5)cnn4C)nc3n2)c1 [Example 105, 3-(7-(4-(azetidine-1-carbonyl)-1-methyl-1H-pyrazole-5-carboxamido)imidazo[1,2-a]pyrimidin-2-yl)phenyl acetate]",36.6
6,"CN(CCOCCF)C(=O)c1cnn(C)c1C(=O)Nc1ccn2cc(-c3ccccc3)nc2n1 [Example 106, 2-Methyl-2H-pyrazole-3,4-dicarboxylic acid 4-{[2-(2-fluoro-ethoxy)-ethyl]-methyl-amide}3-[(2-phenyl-imidazo[1,2-a]pyrimidin-7-yl)-amide]]",43.3
7,"COCCN(C)C(=O)c1cnn(C)c1C(=O)Nc1ccn2cc(-c3cccc(F)c3)nc2n1 [Example 107, 2-Methyl-2H-pyrazole-3,4-dicarboxylic acid 3-{[2-(3-fluoro-phenyl)-imidazo[1,2-a]pyrimidin-7-yl]-amide}4-[(2-methoxy-ethyl)-methyl-amide]]",51.9
8,"CN(CCF)C(=O)c1cnn(C)c1C(=O)Nc1ccn2cc(-c3cccc(OCF)c3)nc2n1 [Example 108, 2-Methyl-2H-pyrazole-3,4-dicarboxylic acid 4-[(2-fluoro-ethyl)-methyl-amide]3-{[2-(3-fluoromethoxy-phenyl)-imidazo[1,2-a]pyrimidin-7-yl]-amide}]",81.7
9,"CN(CCOCCF)C(=O)c1cnn(C)c1C(=O)Nc1ccn2cc(-c3cccc(OCCF)c3)nc2n1 [Example 109, 2-Methyl-2H-pyrazole-3,4-dicarboxylic acid 4-{[2-(2-fluoro-ethoxy)-ethyl]-methyl-amide}3-({2-[3-(2-fluoro-ethoxy)-phenyl]-imidazo[1,2-a]pyrimidin-7-yl}-amide)]",89
10,COc1cccc(-c2cn3ccc(NC(=O)c4c(C(=O)N(C)CCOCCF)cnn4C)nc3n2)c1 [Example 110],222
11,"COc1cccc(-c2cn3ccc(NC(=O)c4c(C(=O)N(C)CCF)cnn4C)nc3n2)c1 [Example 111, 2-Methyl-2H-pyrazole-3,4-dicarboxylic acid 4-[(2-fluoro-ethyl)-methyl-amide]3-{[2-(3-methoxy-phenyl)-imidazo[1,2-a]pyrimidin-7-yl]amide}]",364
12,"Cn1ncc(C(=O)NCc2cocn2)c1C(=O)Nc1ccn2cc(-c3ccccc3)nc2n1 [Example 112, 1-methyl-N4-(oxazol-4-ylmethyl)-N5-(2-phenylimidazo[1,2-a]pyrimidin-7-yl)-1H-pyrazole-4,5-dicarboxamide]",1.3
13,"Cn1ncc(C(=O)NCc2ccn[nH]2)c1C(=O)Nc1ccn2cc(-c3ccccc3)nc2n1 [Example 113, N4-((1H-pyrazol-5-yl)methyl)-1-methyl-N5-(2-phenylimidazo[1,2-a]pyrimidin-7-yl)-1H-pyrazole-4,5-dicarboxamide]",2.6
14,"Cn1ncc(C(=O)N2CC=CC2)c1C(=O)Nc1ccn2cc(-c3ccccc3)nc2n1 [Example 114, 4-(2,5-dihydro-1H-pyrrole-1-carbonyl)-1-methyl-N-(2-phenylimidazo[1,2-a]pyrimidin-7-yl)-1H-pyrazole-5-carboxamide]",2.8
15,"Cn1ncc(C(=O)N2CC(F)C2)c1C(=O)Nc1ccn2cc(-c3ccccc3)nc2n1 [Example 115, 4-(3-fluoroazetidine-1-carbonyl)-1-methyl-N-(2-phenylimidazo[1,2-a]pyrimidin-7-yl)-1H-pyrazole-5-carboxamide]",5.1
16,"CC1CCCN1C(=O)c1cnn(C)c1C(=O)Nc1ccn2cc(-c3ccccc3)nc2n1 (centres unmarked) [Example 116, 1-methyl-4-(2-methylpyrrolidine-1-carbonyl)-N-(2-phenylimidazo[1,2-a]pyrimidin-7-yl)-1H-pyrazole-5-carboxamide]",5.1

row,SMILES,IC50 [nM]
1,"Cn1ncc(C(=O)N2CCC2)c1C(=O)Nc1ccn2cc(-c3cccc(Br)c3)nc2n1 [Example 117, 4-(azetidine-1-carbonyl)-N-(2-(3-bromophenyl)imidazo[1,2-a]pyrimidin-7-yl)-1-methyl-1H-pyrazole-5-carboxamide]",6.2
2,"Cn1ncc(C(=O)NCc2ccccn2)c1C(=O)Nc1ccn2cc(-c3ccccc3)nc2n1 [Example 118, 1-methyl-N5-(2-phenylimidazo[1,2-a]pyrimidin-7-yl)-N4-(pyridin-2-ylmethyl)-1H-pyrazole-4,5-dicarboxamide]",11.9
3,"CN(CC#N)C(=O)c1cnn(C)c1C(=O)Nc1ccn2cc(-c3ccccc3)nc2n1 [Example 119, N4-(cyanomethyl)-N4,1-dimethyl-N5-(2-phenylimidazo[1,2-a]pyrimidin-7-yl)-1H-pyrazole-4,5-dicarboxamide]",13.3
4,"C=CCn1ncc(C(=O)N2CCC2)c1C(=O)Nc1ccn2cc(-c3ccccc3)nc2n1 [Example 120, 1-allyl-4-(azetidine-1-carbonyl)-N-(2-phenylimidazo[1,2-a]pyrimidin-7-yl)-1H-pyrazole-5-carboxamide]",13.7
5,"Cc1cc(CNC(=O)c2cnn(C)c2C(=O)Nc2ccn3cc(-c4ccccc4)nc3n2)n[nH]1 [Example 121, 1-methyl-N-4-((5-methyl-1H-pyrazol-3-yl)methyl)-N5-(2-phenylimidazo[1,2-a]pyrimidin-7-yl)-1H-pyrazole-4,5-dicarboxamide]",16.7
6,"Cn1ncc(C(=O)NCc2ncco2)c1C(=O)Nc1ccn2cc(-c3ccccc3)nc2n1 [Example 122, 1-methyl-N4-(oxazol-2-ylmethyl)-N5-(2-phenylimidazo[1,2-a]pyrimidin-7-yl)-1H-pyrazole-4,5-dicarboxamide]",16.9
7,"Cn1ncc(C(=O)NCCF)c1C(=O)Nc1ccn2cc(-c3ccccc3)nc2n1 [Example 123, N4-(2-fluoroethyl)-1-methyl-N5-(2-phenylimidazo[1,2-a]pyrimidin-7-yl)-1H-pyrazole-4,5-dicarboxamide]",17.3
8,"Cc1cnc(CNC(=O)c2cnn(C)c2C(=O)Nc2ccn3cc(-c4ccccc4)nc3n2)s1 [Example 124, 1-methyl-N4-((5-methylthiazol-2-yl)methyl)-N5-(2-phenylimidazo[1,2-a]pyrimidin-7-yl)-1H-pyrazole-4,5-dicarboxamide]",17.7
9,"Cn1ncc(C(=O)NCC#N)c1C(=O)Nc1ccn2cc(-c3ccccc3)nc2n1 [Example 125, N4-(cyanomethyl)-1-methyl-N5-(2-phenylimidazo[1,2-a]pyrimidin-7-yl)-1H-pyrazole-4,5-dicarboxamide]",18.7
10,"Cn1ncc(C(=O)NCCC(F)(F)F)c1C(=O)Nc1ccn2cc(-c3ccccc3)nc2n1 [Example 126, 1-methyl-N5-(2-phenylimidazo[1,2-a]pyrimidin-7-yl)-N4-(3,3,3-trifluoropropyl)-1H-pyrazole-4,5-dicarboxamide]",24.7
11,"Cc1cc(CNC(=O)c2cnn(C)c2C(=O)Nc2ccn3cc(-c4ccccc4)nc3n2)on1 [Example 127, 1-methyl-N4-((3-methylisoxazol-5-yl)methyl)-N5-(2-phenylimidazo[1,2-a]pyrimidin-7-yl)-1H-pyrazole-4,5-dicarboxamide]",25.9
12,"Cn1ncc(C(=O)N2CCC2)c1C(=O)Nc1ccn2cc(-c3cccc(-c4ccccc4)c3)nc2n1 [Example 128, 4-(azetidine-1-carbonyl)-N-(2-(biphenyl-3-yl)imidazo[1,2-a]pyrimidin-7-yl)-1-methyl-1H-pyrazole-5-carboxamide]",26
13,"Cn1ncc(C(=O)NCC(F)F)c1C(=O)Nc1ccn2cc(-c3ccccc3)nc2n1 [Example 129, N4-(2,2-difluoroethyl)-1-methyl-N5-(2-phenylimidazo[1,2-a]pyrimidin-7-yl)-1H-pyrazole-4,5-dicarboxamide]",33.2
14,"Cn1ncc(C(=O)NCC(F)(F)F)c1C(=O)Nc1ccn2cc(-c3ccccc3)nc2n1 [Example 130, 1-methyl-N5-(2-phenylimidazo[1,2-a]pyrimidin-7-yl)-N4-(2,2,2-trifluoroethyl)-1H-pyrazole-4,5-dicarboxamide]",34.9
15,"Cn1ncc(C(=O)NCc2ccno2)c1C(=O)Nc1ccn2cc(-c3ccccc3)nc2n1 [Example 131, N4-(isoxazol-5-ylmethyl)-1-methyl-N5-(2-phenylimidazo[1,2-a]pyrimidin-7-yl)-1H-pyrazole-4,5-dicarboxamide]",35.1
16,"Cn1ncc(C(=O)N2CC3(COC3)C2)c1C(=O)Nc1ccn2cc(-c3ccccc3)nc2n1 [Example 132, 1-methyl-N-(2-phenylimidazo[1,2-a]pyrimidin-7-yl)-4-(2-oxa-6-azaspiro[3.3]heptane-6-carbonyl)-1H-pyrazole-5-carboxamide]",48.6
